The structures appear in SMILES notation.

The values that follow come from BindingDB's records for patent US10550105 (Ribon Therapeutics, 2020).

The target of the assay is T1, Protein mono-ADP-ribosyltransferase TIPARP (Homo sapiens, UniProt Q7Z3E1).
T1 sequence (Q7Z3E1 whole entry): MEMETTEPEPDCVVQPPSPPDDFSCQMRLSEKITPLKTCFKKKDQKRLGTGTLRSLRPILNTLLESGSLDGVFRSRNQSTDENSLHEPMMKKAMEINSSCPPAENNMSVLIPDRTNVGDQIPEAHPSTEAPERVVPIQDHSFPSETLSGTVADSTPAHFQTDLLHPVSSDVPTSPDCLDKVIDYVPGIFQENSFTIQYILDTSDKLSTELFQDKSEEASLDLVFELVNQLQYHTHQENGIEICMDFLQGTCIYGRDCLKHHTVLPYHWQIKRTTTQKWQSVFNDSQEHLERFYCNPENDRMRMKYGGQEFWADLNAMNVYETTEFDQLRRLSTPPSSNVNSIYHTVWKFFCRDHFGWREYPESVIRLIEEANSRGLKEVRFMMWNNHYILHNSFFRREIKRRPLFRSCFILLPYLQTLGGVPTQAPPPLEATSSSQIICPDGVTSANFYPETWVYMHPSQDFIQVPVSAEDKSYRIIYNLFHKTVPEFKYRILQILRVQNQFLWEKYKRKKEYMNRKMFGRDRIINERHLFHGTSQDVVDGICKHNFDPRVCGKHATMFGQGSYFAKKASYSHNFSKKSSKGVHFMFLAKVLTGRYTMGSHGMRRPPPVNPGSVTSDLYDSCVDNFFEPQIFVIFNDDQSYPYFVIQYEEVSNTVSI
Briefly: Enzymatic Assay for Inhibition of PARP7. As to the method: Displacement of Probe A, a biotinylated probe binding to the TIPARP active site, was measured using a time-resolved fluorescence energy transfer (TR-FRET) assay. 20 nL of a dose response curve of each test compound was spotted in black 384-well polystyrene proxiplates (Perkin Elmer) using a Mosquito (TTP Labtech). Reactions were performed in a 8 μL volume by adding 6 μL of TIPARP and Probe A in assay buffer (20 mM HEPES pH=8, 100 mM NaCl, 0.1% bovine serum albumin, 2 mM DTT and 0.002% Tween20), incubating with test compound at 25° C. for 30 min, then adding 2 μL of ULight-anti 6×His and LANCE Eu-W1024 labeled streptavidin (Perkin Elmer). The final concentrations of TIPARP and Probe A were 6 nM and 2 nM, respectively. […] The Hill Coefficient is normally allowed to float but may also be fixed at 1 in a 3-parameter fit. Y is the % inhibition and x is the compound concentration.
For the compound `N#Cc1ccc(N2CCN(C(=O)/C=C\COC[C@H]3c4ccccc4CN3c3cn[nH]c(=O)c3C(F)(F)F)CC2)nc1` [US10550105, Example 79C], the IC50 – broadly, the concentration that inhibits the measured activity by half – was less than 0.1 µM.
As for `O=C(c1cncc(OC[C@H]2c3ccccc3CN2c2cn[nH]c(=O)c2C(F)(F)F)c1)N1CCn2c(nnc2C(F)(F)F)C1` [US10550105, Example 372], the figure is greater than 1 µM; as for `O=C(c1cncc(OCC2c3ccccc3CN2c2cn[nH]c(=O)c2C(F)(F)F)c1)N1CCn2ncnc2C1` (stereo not given) [US10550105, Example 398], less than 0.1 µM.
Compound `N#Cc1ccc(N2CCN(C(=O)/C=C\COC[C@@H]3c4ccccc4CN3c3cn[nH]c(=O)c3C(F)(F)F)CC2)nc1` [US10550105, Example 79D] came in with a concentration for half-maximal inhibition (IC50) of less than 0.1 µM.
`C[C@@H](OCCC(=O)N1CCN(c2ccc(C#N)cn2)CC1)[C@@H]1CCCN1c1cn[nH]c(=O)c1C(F)(F)F` [US10550105, Example 140B]: the half-maximal inhibitory concentration (IC50) result was “in the range around 0.55 µM”.
